Measurements taken from the kinase profiling compilation of Christmann-Franck et al. (2016).

biological target: PRKACA (human) (UniProt P17612); experiment: radiometric filter-binding kinase assay, Kinase HotSpot; details: compound 0.5 µM; ATP 10 µM

First: N#CCCc1ccc2c(c1)-c1[nH]c3ccc([N+](=O)[O-])cc3c1CC(=O)N2
Second: O=c1c2ccccc2[nH]c(=S)n1CCN1CCC(=C(c2ccc(F)cc2)c2ccc(F)cc2)CC1
The residual activity of the first is lower: 87.6% for the first, 101% for the second.

biological target: AURKA (human) (UniProt O14965); experiment: as above; details: compound 0.5 µM; ATP 10 µM
Sequence (O14965 whole entry, looked up): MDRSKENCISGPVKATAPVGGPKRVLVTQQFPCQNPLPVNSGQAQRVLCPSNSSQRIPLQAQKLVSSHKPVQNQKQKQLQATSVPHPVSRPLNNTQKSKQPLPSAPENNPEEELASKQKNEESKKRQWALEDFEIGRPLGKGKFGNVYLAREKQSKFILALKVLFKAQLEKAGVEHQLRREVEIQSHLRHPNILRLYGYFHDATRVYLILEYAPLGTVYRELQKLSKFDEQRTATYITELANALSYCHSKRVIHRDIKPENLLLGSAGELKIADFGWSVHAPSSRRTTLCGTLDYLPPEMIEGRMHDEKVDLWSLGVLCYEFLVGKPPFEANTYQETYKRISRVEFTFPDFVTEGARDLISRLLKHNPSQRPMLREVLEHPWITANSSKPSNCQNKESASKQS

First: O=C1NC(=O)c2cc(Nc3ccc(F)cc3)c(Nc3ccc(F)cc3)cc21
Second: O=c1c2ccccc2[nH]c(=S)n1CCN1CCC(=C(c2ccc(F)cc2)c2ccc(F)cc2)CC1
The residual activity of the first is lower: 92.7% for the first, 100% for the second.

Going from CCCCc1c(-c2ccc(O)cc2)[nH]c2nccnc12 to N#CCCc1ccc2c(c1)-c1[nH]c3ccc([N+](=O)[O-])cc3c1CC(=O)N2, the residual activity rises from 24.5% to 78.7%.

biological target: MERTK (human) (UniProt Q12866); experiment: as above; details: compound 0.5 µM; ATP 10 µM
Sequence (Q12866 whole entry, looked up): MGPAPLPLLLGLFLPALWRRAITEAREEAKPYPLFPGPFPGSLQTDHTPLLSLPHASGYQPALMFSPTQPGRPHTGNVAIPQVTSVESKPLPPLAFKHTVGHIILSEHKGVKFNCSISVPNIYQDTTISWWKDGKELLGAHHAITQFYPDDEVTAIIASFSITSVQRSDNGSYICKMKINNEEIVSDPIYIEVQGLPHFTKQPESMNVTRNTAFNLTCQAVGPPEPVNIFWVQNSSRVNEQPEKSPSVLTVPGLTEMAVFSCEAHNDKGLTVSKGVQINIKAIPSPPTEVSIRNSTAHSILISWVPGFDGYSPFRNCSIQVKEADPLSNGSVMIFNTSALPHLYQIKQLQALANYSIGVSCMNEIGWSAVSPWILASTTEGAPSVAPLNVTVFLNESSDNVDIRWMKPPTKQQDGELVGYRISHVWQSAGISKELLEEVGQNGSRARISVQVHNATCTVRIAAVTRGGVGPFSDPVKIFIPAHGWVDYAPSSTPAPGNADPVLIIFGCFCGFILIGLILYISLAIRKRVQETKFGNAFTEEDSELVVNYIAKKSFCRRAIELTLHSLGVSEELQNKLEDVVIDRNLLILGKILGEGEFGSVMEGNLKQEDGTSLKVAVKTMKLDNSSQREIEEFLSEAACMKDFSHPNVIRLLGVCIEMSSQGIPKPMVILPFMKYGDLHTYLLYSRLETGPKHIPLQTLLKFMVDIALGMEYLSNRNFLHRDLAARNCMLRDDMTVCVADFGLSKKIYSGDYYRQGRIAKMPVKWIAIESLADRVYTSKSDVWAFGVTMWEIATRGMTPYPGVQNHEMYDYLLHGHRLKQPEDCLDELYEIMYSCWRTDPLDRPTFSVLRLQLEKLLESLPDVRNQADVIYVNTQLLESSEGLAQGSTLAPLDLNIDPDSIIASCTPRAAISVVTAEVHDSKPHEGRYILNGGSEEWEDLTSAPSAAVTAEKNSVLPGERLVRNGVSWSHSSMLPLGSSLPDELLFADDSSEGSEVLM

First: O=C1NC(=O)c2cc(Nc3ccc(F)cc3)c(Nc3ccc(F)cc3)cc21
Second: O=c1c2ccccc2[nH]c(=S)n1CCN1CCC(=C(c2ccc(F)cc2)c2ccc(F)cc2)CC1
The residual activity of the first is higher: 97.4% for the first, 97% for the second.

First: CCCCc1c(-c2ccc(O)cc2)[nH]c2nccnc12
Second: N#CCCc1ccc2c(c1)-c1[nH]c3ccc([N+](=O)[O-])cc3c1CC(=O)N2
The residual activity of the first is higher: 94.1% for the first, 77.5% for the second.

biological target: TYK2 JH1 catalytic (human) (UniProt P29597); experiment: as above; details: compound 0.5 µM; ATP 10 µM

Going from O=C1NC(=O)c2cc(Nc3ccc(F)cc3)c(Nc3ccc(F)cc3)cc21 to O=c1c2ccccc2[nH]c(=S)n1CCN1CCC(=C(c2ccc(F)cc2)c2ccc(F)cc2)CC1, the residual activity rises from 80.6% to 107%.

Going from CCCCc1c(-c2ccc(O)cc2)[nH]c2nccnc12 to N#CCCc1ccc2c(c1)-c1[nH]c3ccc([N+](=O)[O-])cc3c1CC(=O)N2, the residual activity rises from 43.4% to 48.1%.

biological target: MAPK13 (human) (UniProt O15264); experiment: as above; details: compound 0.5 µM; ATP 10 µM
Sequence (O15264 whole entry, looked up): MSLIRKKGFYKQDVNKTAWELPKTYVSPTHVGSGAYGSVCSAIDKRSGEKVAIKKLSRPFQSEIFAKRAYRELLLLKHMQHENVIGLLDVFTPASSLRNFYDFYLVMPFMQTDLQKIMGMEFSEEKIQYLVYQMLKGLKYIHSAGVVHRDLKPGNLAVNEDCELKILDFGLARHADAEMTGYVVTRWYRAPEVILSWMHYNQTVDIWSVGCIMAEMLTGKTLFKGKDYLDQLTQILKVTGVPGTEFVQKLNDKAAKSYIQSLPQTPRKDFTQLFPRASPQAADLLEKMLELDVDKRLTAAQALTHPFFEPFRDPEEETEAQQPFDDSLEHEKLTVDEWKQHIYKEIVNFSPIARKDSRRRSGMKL

Going from O=C1NC(=O)c2cc(Nc3ccc(F)cc3)c(Nc3ccc(F)cc3)cc21 to O=c1c2ccccc2[nH]c(=S)n1CCN1CCC(=C(c2ccc(F)cc2)c2ccc(F)cc2)CC1, the residual activity rises from 99.4% to 106%.

Compared with CCCCc1c(-c2ccc(O)cc2)[nH]c2nccnc12, N#CCCc1ccc2c(c1)-c1[nH]c3ccc([N+](=O)[O-])cc3c1CC(=O)N2 is lower in residual activity: 101% for the first, 98.2% for the second.

biological target: FYN (human) (UniProt P06241); experiment: as above; details: compound 0.5 µM; ATP 10 µM
Sequence (P06241 whole entry, looked up): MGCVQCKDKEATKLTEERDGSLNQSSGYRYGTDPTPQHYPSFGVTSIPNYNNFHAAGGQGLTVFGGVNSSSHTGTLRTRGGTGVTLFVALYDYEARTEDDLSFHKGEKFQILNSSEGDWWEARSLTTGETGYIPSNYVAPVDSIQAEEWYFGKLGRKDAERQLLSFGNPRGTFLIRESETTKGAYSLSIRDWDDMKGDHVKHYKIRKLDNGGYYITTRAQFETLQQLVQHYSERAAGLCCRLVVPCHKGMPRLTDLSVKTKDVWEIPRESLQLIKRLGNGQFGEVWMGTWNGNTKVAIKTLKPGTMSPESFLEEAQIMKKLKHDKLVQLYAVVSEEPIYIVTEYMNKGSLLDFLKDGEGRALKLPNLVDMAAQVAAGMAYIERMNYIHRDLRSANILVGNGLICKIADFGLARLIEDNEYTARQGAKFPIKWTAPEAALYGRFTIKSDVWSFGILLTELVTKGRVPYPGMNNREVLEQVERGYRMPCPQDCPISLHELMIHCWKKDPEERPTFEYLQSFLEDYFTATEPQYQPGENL

Compared with O=C1NC(=O)c2cc(Nc3ccc(F)cc3)c(Nc3ccc(F)cc3)cc21, O=c1c2ccccc2[nH]c(=S)n1CCN1CCC(=C(c2ccc(F)cc2)c2ccc(F)cc2)CC1 is higher in residual activity: 99.4% for the first, 102% for the second.

First: CCCCc1c(-c2ccc(O)cc2)[nH]c2nccnc12
Second: N#CCCc1ccc2c(c1)-c1[nH]c3ccc([N+](=O)[O-])cc3c1CC(=O)N2
The residual activity of the first is higher: 62.1% for the first, 52.2% for the second.

biological target: KIT (human) (UniProt P10721); experiment: as above; details: compound 0.5 µM; ATP 10 µM

First: O=C1NC(=O)c2cc(Nc3ccc(F)cc3)c(Nc3ccc(F)cc3)cc21
Second: O=c1c2ccccc2[nH]c(=S)n1CCN1CCC(=C(c2ccc(F)cc2)c2ccc(F)cc2)CC1
The residual activity of the first is lower: 97.2% for the first, 103% for the second.

First: CCCCc1c(-c2ccc(O)cc2)[nH]c2nccnc12
Second: N#CCCc1ccc2c(c1)-c1[nH]c3ccc([N+](=O)[O-])cc3c1CC(=O)N2
The residual activity of the first is higher: 80.8% for the first, 76.6% for the second.

biological target: ERBB4 (human) (UniProt Q15303); experiment: as above; details: compound 0.5 µM; ATP 10 µM
Sequence (Q15303 whole entry, looked up): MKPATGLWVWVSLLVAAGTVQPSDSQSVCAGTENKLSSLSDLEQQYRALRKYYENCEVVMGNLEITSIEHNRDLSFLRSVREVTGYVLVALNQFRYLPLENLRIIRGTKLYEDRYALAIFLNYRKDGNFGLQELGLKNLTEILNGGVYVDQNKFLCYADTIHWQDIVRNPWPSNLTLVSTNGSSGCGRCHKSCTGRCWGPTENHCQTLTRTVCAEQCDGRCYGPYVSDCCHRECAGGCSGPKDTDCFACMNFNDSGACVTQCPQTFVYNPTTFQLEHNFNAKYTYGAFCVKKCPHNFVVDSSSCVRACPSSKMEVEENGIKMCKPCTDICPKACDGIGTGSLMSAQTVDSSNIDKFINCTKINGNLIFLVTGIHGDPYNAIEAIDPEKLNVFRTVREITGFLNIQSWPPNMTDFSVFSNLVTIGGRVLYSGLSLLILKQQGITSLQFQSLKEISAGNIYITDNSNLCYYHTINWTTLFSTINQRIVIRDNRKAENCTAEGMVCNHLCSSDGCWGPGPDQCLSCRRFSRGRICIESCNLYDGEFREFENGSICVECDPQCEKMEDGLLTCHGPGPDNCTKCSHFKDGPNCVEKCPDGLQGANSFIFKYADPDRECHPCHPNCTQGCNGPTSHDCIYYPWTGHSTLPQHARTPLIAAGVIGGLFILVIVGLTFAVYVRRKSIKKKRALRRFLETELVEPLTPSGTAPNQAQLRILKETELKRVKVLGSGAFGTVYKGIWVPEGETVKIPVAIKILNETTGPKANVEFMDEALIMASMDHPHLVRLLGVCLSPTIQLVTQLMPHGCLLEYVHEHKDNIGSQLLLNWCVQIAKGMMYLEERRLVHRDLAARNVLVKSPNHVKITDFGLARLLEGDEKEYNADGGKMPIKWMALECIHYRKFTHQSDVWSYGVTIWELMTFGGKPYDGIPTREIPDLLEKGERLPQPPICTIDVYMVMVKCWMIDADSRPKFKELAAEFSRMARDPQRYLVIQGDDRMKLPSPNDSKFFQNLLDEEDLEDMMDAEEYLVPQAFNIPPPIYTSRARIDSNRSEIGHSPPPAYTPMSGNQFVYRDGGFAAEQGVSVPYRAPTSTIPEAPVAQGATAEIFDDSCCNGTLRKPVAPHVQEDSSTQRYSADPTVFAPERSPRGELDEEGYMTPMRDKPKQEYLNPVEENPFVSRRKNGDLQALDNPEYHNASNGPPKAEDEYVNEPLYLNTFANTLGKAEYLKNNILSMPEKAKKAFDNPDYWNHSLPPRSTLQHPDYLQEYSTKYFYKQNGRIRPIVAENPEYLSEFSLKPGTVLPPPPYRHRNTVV

First: O=C1NC(=O)c2cc(Nc3ccc(F)cc3)c(Nc3ccc(F)cc3)cc21
Second: O=c1c2ccccc2[nH]c(=S)n1CCN1CCC(=C(c2ccc(F)cc2)c2ccc(F)cc2)CC1
The residual activity of the first is higher: 99.4% for the first, 87.4% for the second.

First: CCCCc1c(-c2ccc(O)cc2)[nH]c2nccnc12
Second: N#CCCc1ccc2c(c1)-c1[nH]c3ccc([N+](=O)[O-])cc3c1CC(=O)N2
The residual activity of the first is higher: 102% for the first, 91.8% for the second.

biological target: MAP4K4 (human) (UniProt O95819); experiment: as above; details: compound 0.5 µM; ATP 10 µM

Compared with O=C1NC(=O)c2cc(Nc3ccc(F)cc3)c(Nc3ccc(F)cc3)cc21, O=c1c2ccccc2[nH]c(=S)n1CCN1CCC(=C(c2ccc(F)cc2)c2ccc(F)cc2)CC1 is higher in residual activity: 91.2% for the first, 99.8% for the second.

Compared with CCCCc1c(-c2ccc(O)cc2)[nH]c2nccnc12, N#CCCc1ccc2c(c1)-c1[nH]c3ccc([N+](=O)[O-])cc3c1CC(=O)N2 is lower in residual activity: 60.9% for the first, 6.82% for the second.

biological target: AURKB (human) (UniProt Q96GD4); experiment: as above; details: compound 0.5 µM; ATP 10 µM
Sequence (Q96GD4 whole entry, looked up): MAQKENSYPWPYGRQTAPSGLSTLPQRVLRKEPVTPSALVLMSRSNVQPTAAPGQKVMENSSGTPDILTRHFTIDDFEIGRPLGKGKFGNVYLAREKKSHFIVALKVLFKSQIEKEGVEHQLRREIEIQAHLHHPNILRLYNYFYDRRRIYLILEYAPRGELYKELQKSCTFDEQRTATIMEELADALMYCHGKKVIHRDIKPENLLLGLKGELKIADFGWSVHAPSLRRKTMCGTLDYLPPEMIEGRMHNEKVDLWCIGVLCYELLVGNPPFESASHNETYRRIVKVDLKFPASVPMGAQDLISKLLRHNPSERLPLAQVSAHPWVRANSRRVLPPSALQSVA

First: O=C1NC(=O)c2cc(Nc3ccc(F)cc3)c(Nc3ccc(F)cc3)cc21
Second: O=c1c2ccccc2[nH]c(=S)n1CCN1CCC(=C(c2ccc(F)cc2)c2ccc(F)cc2)CC1
The residual activity of the first is lower: 99.7% for the first, 102% for the second.

First: CCCCc1c(-c2ccc(O)cc2)[nH]c2nccnc12
Second: N#CCCc1ccc2c(c1)-c1[nH]c3ccc([N+](=O)[O-])cc3c1CC(=O)N2
The residual activity of the first is lower: 66.9% for the first, 80% for the second.

biological target: CSNK1D (human) (UniProt P48730); experiment: as above; details: compound 0.5 µM; ATP 10 µM
Sequence (P48730 whole entry, looked up): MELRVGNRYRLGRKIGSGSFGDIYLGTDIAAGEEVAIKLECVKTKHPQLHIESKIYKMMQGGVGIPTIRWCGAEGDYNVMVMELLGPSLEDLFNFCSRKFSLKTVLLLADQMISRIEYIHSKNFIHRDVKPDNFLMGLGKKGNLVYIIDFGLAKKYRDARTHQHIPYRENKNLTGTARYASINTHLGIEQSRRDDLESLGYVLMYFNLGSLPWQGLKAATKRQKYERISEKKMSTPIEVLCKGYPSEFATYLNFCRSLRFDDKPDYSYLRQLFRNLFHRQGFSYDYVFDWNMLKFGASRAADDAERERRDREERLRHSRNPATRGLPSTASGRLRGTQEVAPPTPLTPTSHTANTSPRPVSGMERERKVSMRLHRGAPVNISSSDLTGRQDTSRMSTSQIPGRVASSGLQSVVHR

Going from O=C1NC(=O)c2cc(Nc3ccc(F)cc3)c(Nc3ccc(F)cc3)cc21 to O=c1c2ccccc2[nH]c(=S)n1CCN1CCC(=C(c2ccc(F)cc2)c2ccc(F)cc2)CC1, the residual activity falls from 109% to 100%.

Compared with CCCCc1c(-c2ccc(O)cc2)[nH]c2nccnc12, N#CCCc1ccc2c(c1)-c1[nH]c3ccc([N+](=O)[O-])cc3c1CC(=O)N2 is higher in residual activity: 93.7% for the first, 97.4% for the second.
